Legend:
[1] = Plasma pharmacokinetics of cocktail index drugs and their metabolites, five-phase crossover trial; conditions: for AUC(0-t) / AUC(0-inf) / Cmax / half-life / Tmax: human, plasma, oral; for AUC(0-t) / AUC(0-inf) / Cmax: geometric mean (geometric CV); for AUC(0-inf): AUC0-∞; for half-life: t1/2, geometric mean (geometric CV); for Tmax: median (range);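 on all read-outs here: parameters derived from plasma drug levels quantified by LC–MS with internal standards after acetonitrile protein precipitation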
Protocol: (§1) This open‐label cross‐over clinical trial included five study phases that each participant underwent in a randomized order (Table 1 ). There was at least 2‐week washout period between different study days.
(§2) On study days, venous blood samples from all participants were drawn from forearm vein cannulas before the administration of the pretreatment drugs and 5 minutes before and 0.5, 1, 1.5, 2, 3, 4, 6, 8, 12, and 23 hours after the administration of the index drugs for determination of index drug and metabolite concentrations. […] Standardized breakfast was served 1 hour, lunch 3 hours, and snacks 7 and 9 hours after the administration of index drugs.
(§3) Prior to the analysis, the analytes were extracted from the plasma samples with simple protein precipitation. Plasma samples (50 μL) were mixed with acetonitrile solution (200 μL) containing internal standards. The samples were centrifugated and an aliquot of the supernatant was mixed with an equal volume of water before LC–MS analyses.
(§4) The flow rate was 0.3 mL/min, and the gradient program for the mobile phase B was from 20% to 90% over 7 minutes, wash at 90% 7–9.5 minutes, followed by balancing at 20% before next injection. […] The column and mobile phases were the same as above, and the gradient program for the mobile phase B was from 40% to 90% over 5 minutes, wash at 90% 5–7.3 minutes, followed by balancing at 40% before next injection. The quality control samples for each analyte at relevant concentrations were quantified with each batch of plasma samples.
(§5) Individuals with poor metabolism or transport function phenotype were excluded from respective statistical comparisons.

clinical = conditions: human; for AUC(0-inf): AUC0-∞; for Tmax: median (range); for half-life: t1/2, geometric mean (geometric CV)
Protocol: as §1, §2, §3, §4, §5

[2] = phase IV: clopidogrel 300 mg pretreatment + full cocktail
[3] = phase V: gemfibrozil 600 mg b.i.d. 3 days pretreatment + full cocktail
[4] = in vivo, AUC0-23h, geometric mean (geometric CV), phase II: Geneva cocktail
[5] = in vivo, geometric mean (geometric CV), phase II: Geneva cocktail
[6] = in vivo, phase II: Geneva cocktail
[7] = in vivo, AUC0-23h, geometric mean (geometric CV), phase IV: clopidogrel 300 mg pretreatment + full cocktail
[8] = in vivo, AUC0-23h, geometric mean (geometric CV), phase V: gemfibrozil 600 mg b.i.d. 3 days pretreatment + full cocktail
[9] = in vivo, geometric mean (geometric CV), phase IV: clopidogrel 300 mg pretreatment + full cocktail
[10] = in vivo, geometric mean (geometric CV), phase V: gemfibrozil 600 mg b.i.d. 3 days pretreatment + full cocktail
[11] = in vivo, phase V: gemfibrozil 600 mg b.i.d. 3 days pretreatment + full cocktail
[12] = in vivo, phase IV: clopidogrel 300 mg pretreatment + full cocktail
[13] = AUC0-12h, phase II: Geneva cocktail

Row | Compound | Cmax, geometric mean (geometric CV) ([1]; phase II: Geneva cocktail) | Tmax, median (range) ([1]; phase II: Geneva cocktail) | Tmax, median (range) [1, 2] | t1/2, geometric mean (geometric CV) [1, 2] | AUC0-23h, geometric mean (geometric CV) [1, 3] | t1/2, geometric mean (geometric CV) [1, 3] | AUC(0-t) (clinical; [4]) [ng·h/mL] | AUC(0-inf) (clinical; [5]) [ng·h/mL] | Cmax (clinical; [5]) [ng/mL] | half-life (clinical; [6]) [h] | AUC(0-t) (clinical; [7]) [ng·h/mL] | AUC(0-t) (clinical; [8]) [ng·h/mL] | AUC(0-inf) (clinical; [9]) [ng·h/mL] | AUC(0-inf) (clinical; [10]) [ng·h/mL] | Cmax (clinical; [9]) [ng/mL] | Cmax (clinical; [10]) [ng/mL] | half-life (clinical; [12]) [h] | half-life (clinical; [11]) [h] | other results
1 | COc1ccc2nc([S+]([O-])Cc3ncc(CO)c(OC)c3C)[nH]c2c1 (stereo not drawn) [5’-OH-omeprazole, 5′‐hydroxyomeprazole] | 99.8 (87.9%) ng/mL | 1.5 (1.0-2.0) h | 1.5 (1.0-3.0) h | 1.04 (15.5%) h | 253 (37.6%) ng×h/mL | 1.34 (32.6%) h |  |  |  |  |  |  |  |  |  |  |  |  | AUC0-23h, geometric mean (geometric CV) ([1]; phase II: Geneva cocktail): 194 (35.7%) ng×h/mL; AUC0-∞, geometric mean (geometric CV) ([1]; phase II: Geneva cocktail): 193 (36.1%) ng×h/mL; t1/2, geometric mean (geometric CV) ([1]; phase II: Geneva cocktail): 1.17 (36.9%) h; AUC0-23h, geometric mean (geometric CV) [1, 2]: 213 (14.6%) ng×h/mL; AUC0-∞, geometric mean (geometric CV) [1, 2]: 212 (14.5%) ng×h/mL; Cmax, geometric mean (geometric CV) [1, 2]: 115 (23.8%) ng/mL; AUC0-∞, geometric mean (geometric CV) [1, 3]: 253 (36.9%) ng×h/mL; Cmax, geometric mean (geometric CV) [1, 3]: 104 (76.9%) ng/mL; Tmax, median (range) [1, 3]: 1.5 (1.0-4.0) h
2 | CC(C(=O)O)c1ccc(-c2ccc(O)cc2)c(F)c1 (stereo not drawn) [4’-OH-flurbiprofen, 4′‐hydroxyflurbiprofen] |  |  |  |  |  |  | 224 | 263 | 46.4 | 3.44 |  |  |  |  |  |  |  |  | Tmax (clinical; [6]): 1.8 h
3 | C[C@H]1NC(C)(C)CO[C@]1(O)c1cccc(Cl)c1 [OH-bupropion, hydroxybupropion] | 36.9 (38.6%) ng/mL | 3.0 (2.0-4.0) h | 4.0 (1.5-12.0) h | 34.6 (42.9%) h | 585 (43.5%) ng×h/mL | 29.4 (51.7%) h |  |  |  |  |  |  |  |  |  |  |  |  | AUC0-23h, geometric mean (geometric CV) ([1]; phase II: Geneva cocktail): 571 (35.3%) ng×h/mL; AUC0-∞, geometric mean (geometric CV) ([1]; phase II: Geneva cocktail): 1200 (44.1%) ng×h/mL; t1/2, geometric mean (geometric CV) ([1]; phase II: Geneva cocktail): 26.1 (40.1%) h; AUC0-23h, geometric mean (geometric CV) [1, 2]: 181 (37.6%) ng×h/mL; AUC0-∞, geometric mean (geometric CV) [1, 2]: 499 (45.3%) ng×h/mL; Cmax, geometric mean (geometric CV) [1, 2]: 10.3 (39.9%) ng/mL; AUC0-∞, geometric mean (geometric CV) [1, 3]: 1380 (41.2%) ng×h/mL; Cmax, geometric mean (geometric CV) [1, 3]: 34.1 (44.6%) ng/mL; Tmax, median (range) [1, 3]: 6.0 (1.0-12.0) h
4 | COc1ccc2c(c1)[C@]13CCCC[C@@H]1[C@H](C2)N(C)CC3 [Dextromethorphan, dextromethorphan] |  | 2.0 (2.0-4.0) h | 2.0 (2.0-3.0) h |  |  |  | 4.9 | 5.58 | 0.745 | 4.24 | 6.01 | 6.07 | 6.68 | 6.82 | 0.858 | 0.898 | 4.61 | 4.38 | Tmax (clinical; [11]): 2.5 h
5 | Cc1ncc2n1-c1ccc(Cl)cc1C(c1ccccc1F)=NC2 [Midazolam, midazolam] | 4.03 (36.4%) ng/mL | 0.5 (0.5-1.0) h | 1.0 (0.5-1.0) h |  |  |  | 9.89 | 9.82 |  | 2.29 | 11.3 | 8.06 | 11.2 | 7.98 | 4.33 | 3.25 | 2.4 | 2.29 | 
6 | Cn1c(=O)c2c(ncn2C)n(C)c1=O [Caffeine, caffeine] |  |  |  |  |  |  |  |  |  |  |  |  |  |  |  |  |  |  | Prolongation of t1/2 ([1]; gemfibrozil pretreatment vs control): 21%; AUC(0-t) [1, 13]: 6250 ng·h/mL; AUC(0-inf) ([1]; phase II: Geneva cocktail): 7830 ng·h/mL; Cmax ([1]; phase II: Geneva cocktail): 1130 ng/mL; half-life ([1]; phase II: Geneva cocktail): 4.65 h; AUC(0-t) (clinical; plasma, oral): 6270 ng·h/mL
7 | Cn1c(=O)[nH]c2ncn(C)c2c1=O [Paraxanthine, paraxanthine] |  |  |  |  |  |  |  |  |  |  |  |  |  |  |  |  |  |  | AUC(0-t) [1, 13]: 3370 ng·h/mL; AUC(0-t) ([1]; AUC0-12h, phase IV: clopidogrel 300 mg pretreatment + full cocktail): 3940 ng·h/mL; AUC(0-t) ([1]; AUC0-12h, phase V: gemfibrozil 600 mg b.i.d. 3 days pretreatment + full cocktail): 3360 ng·h/mL; AUC(0-inf) ([1]; phase II: Geneva cocktail): 7220 ng·h/mL; AUC(0-inf) [1, 2]: 8930 ng·h/mL; AUC(0-inf) [1, 3]: 9160 ng·h/mL; Cmax ([1]; phase II: Geneva cocktail): 374 ng/mL; Cmax [1, 2]: 436 ng/mL; Cmax [1, 3]: 358 ng/mL; Tmax ([1]; phase II: Geneva cocktail): 4 h; Tmax [1, 2]: 3 h; half-life ([1]; phase II: Geneva cocktail): 11 h; half-life [1, 2]: 12.8 h; half-life [1, 3]: 15.9 h
8 | CC(C(=O)O)c1ccc(-c2ccccc2)c(F)c1 (stereo not drawn) [Flurbiprofen, flurbiprofen] |  |  |  |  |  |  | 5550 | 5910 | 1090 | 4.82 | 5720 | 5770 | 5940 | 6080 | 1180 | 1110 | 4.35 | 4.61 | Tmax (clinical; [12]): 1.5 h; Tmax (clinical; [11]): 1.5 h
9 | COc1ccc2[nH]c([S+]([O-])Cc3ncc(C)c(OC)c3C)nc2c1 (stereo not drawn) [Omeprazole, omeprazole] | 144 (88.5%) ng/mL |  |  | 0.69 (30.9%) h | 150 (62.8%) ng×h/mL | 0.78 (59.9%) h | 177 | 177 |  | 0.76 | 214 |  | 214 | 149 | 167 | 98 |  |  | 
10 | CC(NC(C)(C)C)C(=O)c1cccc(Cl)c1 (stereo not drawn) [Bupropion, bupropion] |  |  |  |  |  |  | 76.5 | 84.7 | 20 | 7.89 |  |  |  |  |  |  |  |  | 
11 | CN1CC[C@@]23CCCC[C@@H]2[C@@H]1Cc1ccc(O)cc13 [Dextrorphan, dextrorphan] |  |  |  |  |  |  | 8.07 | 8.35 | 1.82 | 2.5 | 9.66 | 17.8 | 10 | 17.8 | 2.05 | 3.63 | 2.68 | 2.77 | Tmax (clinical; [6]): 2 h; Tmax (clinical; [12]): 2 h; Tmax (clinical; [11]): 2 h
12 | COc1ccc2nc(S(=O)(=O)Cc3ncc(C)c(OC)c3C)[nH]c2c1 [Omeprazole sulfone, omeprazole sulfone] |  |  |  |  |  |  |  |  |  |  |  |  |  |  |  |  |  |  | AUC(0-t) ([1]; AUC0-23h, phase II: Geneva cocktail): 113 ng·h/mL; AUC(0-t) ([1]; AUC0-23h, phase IV: clopidogrel 300 mg pretreatment + full cocktail): 156 ng·h/mL; AUC(0-t) ([1]; AUC0-23h, phase V: gemfibrozil 600 mg b.i.d. 3 days pretreatment + full cocktail): 124 ng·h/mL; AUC(0-inf) ([1]; phase II: Geneva cocktail): 111 ng·h/mL; AUC(0-inf) [1, 2]: 154 ng·h/mL; AUC(0-inf) [1, 3]: 122 ng·h/mL; Cmax ([1]; phase II: Geneva cocktail): 35.3 ng/mL; Cmax [1, 2]: 51.2 ng/mL; Cmax [1, 3]: 41.8 ng/mL; Tmax ([1]; phase II: Geneva cocktail): 1.5 h; Tmax [1, 2]: 1.5 h; Tmax [1, 3]: 1.5 h; half-life ([1]; phase II: Geneva cocktail): 1.9 h; half-life [1, 2]: 1.88 h; half-life [1, 3]: 1.64 h
13 | OCc1ncc2n1-c1ccc(Cl)cc1C(c1ccccc1F)=NC2 [1’-OH-midazolam, 1′‐hydroxymidazolam] | 1.48 (40.9%) ng/mL | 1.0 (0.5-1.0) h | 1.0 (0.5-1.0) h | 1.46 (26.6%) h | 7.33 (41.1%) ng×h/mL | 1.85 (28.8%) h |  |  |  |  |  |  |  |  |  |  |  |  | AUC0-23h, geometric mean (geometric CV) ([1]; phase II: Geneva cocktail): 3.54 (37.4%) ng×h/mL; AUC0-∞, geometric mean (geometric CV) ([1]; phase II: Geneva cocktail): 3.75 (35.9%) ng×h/mL; t1/2, geometric mean (geometric CV) ([1]; phase II: Geneva cocktail): 1.53 (35.6%) h; AUC0-23h, geometric mean (geometric CV) [1, 2]: 5.03 (42.0%) ng×h/mL; AUC0-∞, geometric mean (geometric CV) [1, 2]: 5.15 (39.8%) ng×h/mL; Cmax, geometric mean (geometric CV) [1, 2]: 2.14 (42.5%) ng/mL; AUC0-∞, geometric mean (geometric CV) [1, 3]: 7.65 (36.6%) ng×h/mL; Cmax, geometric mean (geometric CV) [1, 3]: 2.83 (38.7%) ng/mL; Tmax, median (range) [1, 3]: 1.0 (0.5-1.5) h

From article PMC12087695, “A Phenotyping Tool for Seven Cytochrome P450 Enzymes and Two Transporters: Application to Examine the Effects of Clopidogrel and Gemfibrozil” (Clinical Pharmacology and Therapeutics, 2025)
